Test results reported in the supplement of paper PMC4862054.

Experiments:
Assay in all cases: normalised viability (% of control), CellTiter-Blue; higher = more viable cells (about 100 = DMSO control)
SK-BR-3 = conditions: incubation time: 72 h
Procedure, shortened: (§1)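 After 72 h on compound-loaded 384-well plates, breast cancer cell lines received 2.5 µl CellTiter-Blue reagent for 2 h at 37 °C. Fluorescence at 560/590 nm was scaled per plate so that vehicle was 100 and a positive kill control was 0. The value stands for normalised viability at a single listed concentration of the series.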

CAL-148 = conditions: incubation time: 72 h
Procedure, shortened: as §1

CAL-120 [1] = conditions: incubation time: 72 h
Procedure, shortened: as §1

MFM-223 [2] = conditions: incubation time: 72 h
Procedure, shortened: as §1

Hs578T [3] = conditions: incubation time: 72 h
Procedure, shortened: as §1

HCC1599 = conditions: incubation time: 72 h
Procedure, shortened: as §1

HCC1937 [4] = conditions: incubation time: 72 h
Procedure, shortened: as §1

DU-4475 [5] = conditions: incubation time: 72 h
Procedure, shortened: as §1

CAL-51 = conditions: incubation time: 72 h
Procedure, shortened: as §1

MDA-MB-468 [6] = conditions: incubation time: 72 h
Procedure, shortened: as §1

MDA-MB-436 [7] = conditions: incubation time: 72 h
Procedure, shortened: as §1

BT-474 [8] = conditions: incubation time: 72 h
Procedure, shortened: as §1

MDA-MB-231 = conditions: incubation time: 72 h
Procedure, shortened: as §1

BT-549 = conditions: incubation time: 72 h
Procedure, shortened: as §1

HCC1143 = conditions: incubation time: 72 h
Procedure, shortened: as §1

CAL-85-1 [9] = conditions: incubation time: 72 h
Procedure, shortened: as §1

HDQ-P1 = conditions: incubation time: 72 h
Procedure, shortened: as §1

MDA-MB-453 = conditions: incubation time: 72 h
Procedure, shortened: as §1

CAL-120 [10] = conditions: 100 nM; incubation time: 72 h
Procedure, shortened: as §1

MFM-223 [11] = conditions: 100 nM; incubation time: 72 h
Procedure, shortened: as §1

Hs578T [12] = conditions: 100 nM; incubation time: 72 h
Procedure, shortened: as §1

HCC1937 [13] = conditions: 100 nM; incubation time: 72 h
Procedure, shortened: as §1

DU-4475 [14] = conditions: 10 nM; incubation time: 72 h
Procedure, shortened: as §1

MDA-MB-468 [15] = conditions: 100 nM; incubation time: 72 h
Procedure, shortened: as §1

MDA-MB-436 [16] = conditions: 100 nM; incubation time: 72 h
Procedure, shortened: as §1

BT-474 [17] = conditions: 100 nM; incubation time: 72 h
Procedure, shortened: as §1

CAL-85-1 [18] = conditions: 10 nM; incubation time: 72 h
Procedure, shortened: as §1

Cc1c(CN2CCN(C(=O)[C@H](C)O)CC2)sc2c(N3CCOCC3)nc(-c3cnc(N)nc3)nc12 [GDC-0980]
normalised viability [%]
Conditions | 3 nM | 10 nM | 30 nM | 100 nM | 1000 nM | 10000 nM
BT-474 [8] | – | 115 | – | – | 22.1 | 12.3
BT-549 | – | 88.7 | – | – | 33.3 | 13.6
CAL-51 | 112 | – | 98.5 | 71.9 | – | –
CAL-85-1 [9] | 102 | – | 83.3 | 89.2 | – | –
CAL-120 [1] | – | 103 | – | – | 24.1 | 13.7
CAL-148 | 100 | – | 94.5 | 87.6 | – | –
DU-4475 [5] | 102 | – | 82.1 | 83.5 | – | –
HCC1143 | – | 88.7 | – | – | 33.8 | 15.6
HCC1599 | – | 95 | – | – | 39.7 | 35.3
HCC1937 [4] | – | 113 | – | – | 39.7 | 26.2
HDQ-P1 | 91.9 | – | 84.3 | 70.8 | – | –
Hs578T [3] | – | 121 | – | – | 28.9 | 17.1
MDA-MB-231 | – | 95.6 | – | – | 27.6 | 23.6
MDA-MB-436 [7] | – | 81.2 | – | – | 44.7 | 18.2
MDA-MB-453 | 116 | – | 77.8 | 56.1 | – | –
MDA-MB-468 [6] | – | 105 | – | – | 44.4 | 10.7
MFM-223 [2] | – | 86.1 | – | – | 18.1 | 14.2
SK-BR-3 | – | 102 | – | – | 15.9 | 9.04

Conditions | normalised viability [%]
BT-474 [17] | 90.2
CAL-85-1 [18] | 100
CAL-120 [10] | 71.7
DU-4475 [14] | 92.7
HCC1937 [13] | 76.7
Hs578T [12] | 82.2
MDA-MB-436 [16] | 85.6
MDA-MB-468 [15] | 85.3
MFM-223 [11] | 65.4

O=C(CCBr)N1CCN(C(=O)CCBr)CC1 [Pipobroman]
normalised viability [%]
Conditions | 3 nM | 10 nM | 30 nM | 100 nM | 1000 nM | 10000 nM
BT-474 [8] | – | 120 | – | – | 102 | 133
BT-549 | – | 87.1 | – | – | 87.1 | 84.2
CAL-51 | 114 | – | 111 | 103 | – | –
CAL-85-1 [9] | 99.3 | – | 98.6 | 100 | – | –
CAL-120 [1] | – | 90.1 | – | – | 103 | 84.9
CAL-148 | 97.9 | – | 102 | 103 | – | –
DU-4475 [5] | 111 | – | 105 | 108 | – | –
HCC1143 | – | 82 | – | – | 86.2 | 88.2
HCC1599 | – | 97 | – | – | 92.8 | 83.2
HCC1937 [4] | – | 89.2 | – | – | 77.9 | 85.3
HDQ-P1 | 104 | – | 83.8 | 107 | – | –
Hs578T [3] | – | 107 | – | – | 97 | 95.8
MDA-MB-231 | – | 97.8 | – | – | 104 | 89.4
MDA-MB-436 [7] | – | 92.6 | – | – | 98.7 | 81.7
MDA-MB-453 | 124 | – | 95.9 | 92.7 | – | –
MDA-MB-468 [6] | – | 98 | – | – | 94.2 | 87.4
MFM-223 [2] | – | 86.6 | – | – | 90.4 | 35.7
SK-BR-3 | – | 101 | – | – | 119 | 95.6

Conditions | normalised viability [%]
BT-474 [17] | 119
CAL-85-1 [18] | 110
CAL-120 [10] | 96
DU-4475 [14] | 103
HCC1937 [13] | 87.9
Hs578T [12] | 91.4
MDA-MB-436 [16] | 93
MDA-MB-468 [15] | 98
MFM-223 [11] | 98.8
